Data published in patent US20240398781A1, “SPIROCYCLIC CYCLIC MODULATORS OF CHOLESTEROL BIOSYNTHESIS AND THEIR USE FOR PROMOTING REMYELINATION” (GENENTECH, INC., priority 2021, published 2024).
pEC50, pKi: −log10 of the molar value. Read-outs that look alike come from different tables or passages of the source.

Assays:
[1] = molecular target: human EBP (Homo sapiens (Human), UniProt Q15125); experiment: Competition binding assay (SPA, [3H]-Ifenprodil) to determine compound affinity to EBP; settings: [3H]-Ifenprodil 10 nM, HEK293 membrane overexpressing human EBP, Ki=IC50/(1+[L]/Kd); read-out: hEBP SPA Ki
Procedure: Membrane preparation: To examine compound binding affinity to EBP, human EBP was overexpressed in human embryonic kidney 293 cells. Cell pellet was lysed in 10 times weight binding buffer (50 mM Tris, 5 mM MgCl2, 0.1 mM EDTA, lx protease inhibitor cocktail, pH 7.5) on ice by using a dounce homogenizer. The solution was centrifuged at 25,000 g for 50 min at 4° C. The membrane pellet was re-suspended in binding buffer and run through a 25 5/8 gauge needle. After checking the concentration by Bradford assay, the whole cell membrane solution was adjusted to 20 mg/mL and stored at −80° C.
This binding solution was centrifuged at 400 g for 5 minutes to collect the bead/membrane mixture. After re-suspending the pellet in binding buffer at the same calculated volume with 0.01% BSA (Sigma A1933), the bead/membrane mixture was added in 384-well low-binding surface plate (PerkinElmer Cat #6057480) at 25 μl/well. Radioligand at different concentrations with and without the non-radio-labeled same ligand 5 uM (for nonspecific and total signal, respectively) was added to bring final volume to 50 µl/well with DMSO concentration at 0.1%. At equilibrium (3 hours after ligand addition), radiometric signal CPM was counted by using a Microbeta2 microplate counter (Perkinelmer).
Competition binding assay to determine compound affinity: The same conditions of the radioligand Kd study were used for compound single dose percentage inhibition and equilibrium dissociation constant Ki examinations, except 50 nL compound DMSO stock was pre-added in 384-well low-binding surface plate (PerkinElmer Cat #6057480) by Echo 550 (Labcyte) to reach the final concentration for single dose test at 1 uM, and dose response test from 0.06 nM to 5 uM (8 dose, 5 times dilution). A pre-incubated bead/membrane mixture was added in compound plate at 0.3 mg beads and […] membrane per well. […] At equilibrium (3 hours after ligand addition), radiometric signal was counted as described above. The percentage inhibition of compound at each testing concentration was calculated by normalizing each condition's CPM readout to full block (5 uM non-radiolabeled ligand) and non-block (DMSO) control conditions. Compound binding inhibition IC50 was determined by nonlinear regression fitting of percentage inhibition plot against compound concentration. Compound Ki was calculated from the equation Ki=IC50/(1+[L]/Kd), which [L] was radioligand concentration used in assay. All tests had N bigger or equal to 2.

[2] = molecular target: human emopamil binding protein and human 7-dehydrocholesterol reductase co-expressing cells (hEBP-DHCR7 membrane) (Homo sapiens (Human), UniProt Q15125); experiment: Radioligand filter binding assay on hEBP-DHCR7 membrane; settings: [3H]-(S)-6-(2-Methyl-3-(6-(trifluoromethyl)pyridin-3-yl)propyl)-2-thia-6-azaspiro[3.4]octane 2,2-dioxide radioligand, HEK293 membrane co-expressing hEBP and hDHCR7
Method in brief: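 HEK293 cells transiently co-expressing human EBP and DHCR7 supplied whole-cell membranes (10 μg/well), incubated 3 h at 22 °C with [3H]-labelled spiro-octane dioxide ligand (added at 25 nM) and compound (0.06-5000 nM final, 8 doses, n=2). Bound ligand was collected on PEI-treated GF/B filters and counted by scintillation. IC50 was Hill-fitted from % inhibition and reported as Ki.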

[3] = system: EBP (zymostenol accumulation in EpiSC-derived OPCs); experiment: GC/MS-based sterol profiling, zymostenol accumulation in OPCs; type: cell-based, mouse; settings: EpiSC-derived OPCs, 24 hr treatment, 8 doses from 0.15 nM to 333 nM, read-out: Zymostenol GCMS EC50
Method in brief: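 EpiSC-derived OPCs (100,000/well) were treated 24 h in N2B27 without growth factors. Sterols were TMS-derivatized and analysed by GC/MS full-scan EI, quantified against cholesterol-d7. Zymostenol was normalized to the level after 24 h with 100 nM positive control reference.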

[4] = system: EpiSC-derived OPCs; experiment: In vitro phenotypic screening of OPCs (MBP staining, high-content imaging); type: cell-based, mouse; settings: percentage of MBP+ oligodendrocytes, 3 days, 0.5 nM to 1000 nM, read-out: OPC EC50
Method in brief: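 Readout: high-content imaging of MBP immunostaining around DAPI nuclei, giving percent oligodendrocytes, with EC50 from a Levenberg-Marquardt Hill fit. Epiblast stem cell-derived OPCs were plated on laminin at 150,000/cm^2 in growth-factor-free N2B27. They were exposed 3 days to an 8-point series, 0.5-1000 nM final, in two or more independent platings.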

Sequence of human EBP (Q15125 whole entry): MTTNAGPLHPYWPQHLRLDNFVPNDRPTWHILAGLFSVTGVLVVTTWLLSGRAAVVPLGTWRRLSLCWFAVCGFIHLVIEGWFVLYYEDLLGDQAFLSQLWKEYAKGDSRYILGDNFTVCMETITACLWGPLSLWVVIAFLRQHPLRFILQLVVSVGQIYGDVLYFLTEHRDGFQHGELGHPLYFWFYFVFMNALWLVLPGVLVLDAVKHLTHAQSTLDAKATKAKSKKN
Sequence of human emopamil binding protein and human 7-dehydrocholesterol reductase co-expressing cells (hEBP-DHCR7 membrane) (Q15125 whole entry): as above

Row | SMILES | pKi [2] | pEC50 ([3]; Mus musculus, 24 h) | pEC50 ([4]; Mus musculus, 72 h) | pEC50 [4] | pEC50 [3] | pKi [1]
1 | CC(C)n1nc(-c2ccc(C(F)(F)F)nc2)nc1[C@@H]1CC[C@@H](N2CCC3(C2)CS(=O)(=O)C3)C1 (single isomer, unassigned) [17C*] | – | 8.54 | 7.89 | – | – | 7.74
2 | CC(C)n1nc(-c2ccc(C(F)(F)F)nc2)nc1[C@@H]1CC[C@H](N2CCC3(C2)CS(=O)(=O)C3)C1 (single isomer, unassigned) [17A*] | 7.62 | 8.68 | – | – | – | 7.66
3 | O=S1(=O)CC2(CCN([C@H]3CCC[C@H](c4ccc(C(F)(F)F)nc4)C3)CC2)C1 (single isomer, unassigned) [56B*] | 6.77 | 6.49 | 6.06 | – | – | –
4 | O=S1(=O)CC2(CCN([C@H]3CCC[C@@H](c4ccc(C(F)(F)F)nc4)C3)CC2)C1 (single isomer, unassigned) [56C*] | 6.85 | 7.72 | 7.12 | – | – | –
5 | O=S1(=O)CC2(CCN([C@H]3CC[C@H](c4ncc(C(F)(F)F)cc4F)CC3)C2)C1 [Compound 59, 6-((1r,4r)-4-(3-Fluoro-5-(trifluoromethyl)pyridin-2-yl)cyclohexyl)-2-thia-6-azaspiro[3.4]octane 2,2-dioxide] | 7.14 | 7.89 | 7.09 | – | – | –
6 | O=S1(=O)CC2(CCN([C@@H]3CC[C@@H](c4nc(-c5cccc(C(F)(F)F)n5)nn4C4CC4)C3)CC2)C1 (single isomer, unassigned) [42B*] | 6.41 | 7.24 | 6.74 | – | – | –
7 | O=S1(=O)CC2(CCN([C@H]3CC[C@@H](c4nc(-c5cccc(C(F)(F)F)n5)nn4C4CC4)C3)CC2)C1 (single isomer, unassigned) [42A*] | 6.24 | 7.37 | 7.03 | – | – | –
8 | O=S1(=O)CC2(CCN([C@H]3CC[C@H](c4cc(C(F)(F)F)ncn4)CC3)C2)C1 [Compound 83, 6-((1r,4r)-4-(6-(Trifluoromethyl)pyrimidin-4-yl)cyclohexyl)-2-thia-6-azaspiro[3.4]octane 2,2-dioxide] | 6.92 | 7.47 | 6.55 | – | – | –
9 | O=S1(=O)CC2(CCN([C@@H]3CC[C@@H](c4ccc(C(F)(F)F)nc4)C3)CC2)C1 (single isomer, unassigned) [57B*] | 6.70 | – | – | 6.80 | 7.36 | –

The remaining molecules from weak to strong by pKi [2], led by results:

Row | pKi [2] | pEC50 ([3]; Mus musculus, 24 h) | pEC50 ([4]; Mus musculus, 72 h) | pEC50 [4] | pEC50 [3] | SMILES | pKi [1]
10 | 7.17 | 7.89 | 7.46 | – | – | O=S1(=O)CC2(CCN([C@H]3CCC[C@H](c4ccc(C(F)(F)F)nc4)C3)C2)C1 (single isomer, unassigned) [54D*] | –
11 | 7.48 | 7.36 | – | – | – | CC(C)n1nc(C(F)(F)F)cc1[C@@H]1CC[C@@H](N2CCC3(C2)CS(=O)(=O)C3)C1 (single isomer, unassigned) [10D*] | 7.37
12 | 7.59 | 7.66 | 6.85 | – | – | CC(C)n1nc(C(F)(F)F)cc1[C@@H]1CCC[C@H](N2CCC3(CC2)CS(=O)(=O)C3)C1 (single isomer, unassigned) [78B*] | –
13 | 7.62 | 8.68 | 8.12 | – | – | O=S1(=O)CC[C@@]2(CCCN([C@H]3CC[C@@H](c4cc(C(F)(F)F)nn4C4CC4)CC3)C2)C1 (single isomer, unassigned) [69A*] | –
14 | 7.66 | 8.01 | 7.44 | – | – | O=S1(=O)CC2(CCCN([C@H]3CC[C@H](c4ccc(C(F)(F)F)nc4)CC3)C2)C1 [Compound 79, 6-((1r,4r)-4-(6-(Trifluoromethyl)pyridin-3-yl)cyclohexyl)-2-thia-6-azaspiro[3.5]nonane 2,2-dioxide] | –
15 | 7.68 | 7.48 | 6.96 | – | – | CC(C)(C)n1nc(C(F)(F)F)cc1[C@H]1CC[C@H](N2CCC3(C2)CS(=O)(=O)C3)CC1 [Compound 73, 6-((1r,4r)-4-(1-(tert-Butyl)-3-(trifluoromethyl)-1H-pyrazol-5-yl)cyclohexyl)-2-thia-6-azaspiro[3.4]octane 2,2-dioxide] | –
16 | 7.77 | 7.89 | 7.31 | – | – | O=S1(=O)CC2(CCN(C3CCN(c4ncc(F)cc4C(F)(F)F)CC3)C2)C1 [Compound 45, 6-(1-(5-Fluoro-3-(trifluoromethyl)pyridin-2-yl)piperidin-4-yl)-2-thia-6-azaspiro[3.4]octane 2,2-dioxide] | –
17 | 7.89 | 8.77 | 8.28 | – | – | CC(C)n1nc(-c2cccc(C(F)(F)F)n2)cc1[C@H]1CC[C@@H](N2CCC3(CC2)CS(=O)(=O)C3)C1 (single isomer, unassigned) [46C*] | –
18 | 7.92 | 8.92 | 8.64 | – | – | CC(C)n1nc(-c2ccc(C(F)(F)F)cc2)nc1[C@H]1CC[C@H](N2CCC3(C2)CS(=O)(=O)C3)C1 (single isomer, unassigned) [53A*] | –
19 | 7.96 | 8.04 | – | – | – | Cc1cc(C(F)(F)F)cnc1[C@H]1CC[C@@H](N2CCC3(C2)CS(=O)(=O)C3)CC1 [Compound 47A, 6-((1s,4s)-4-(3-methyl-5-(trifluoromethyl)pyridin-2-yl)cyclohexyl)-2-thia-6-azaspiro[3.4]octane 2,2-dioxide] | 7.96
20 | 7.96 | 8.49 | 8.30 | – | – | O=S1(=O)CC2(CCN([C@H]3CC[C@H](c4ccc(C(F)(F)F)nc4C4CC4)CC3)C2)C1 [Compound 75, 6-((1r,4r)-4-(2-Cyclopropyl-6-(trifluoromethyl)pyridin-3-yl)cyclohexyl)-2-thia-6-azaspiro[3.4]octane 2,2-dioxide] | –
21 | 8.55 | 8.64 | 7.82 | – | – | O=S1(=O)CC2(CCN([C@@H]3CCCN(c4ccc(C(F)(F)F)cc4)C3)CC2)C1 (single isomer, unassigned) [55A*] | –
